Test results reported in patent publication US10092620B2, “Uses of cyclic peptides for treating and preventing atherosclerosis” (THE SCRIPPS RESEARCH INSTITUTE, priority 2013, dated 2018).
Entries after “also recorded” stand apart in the source; their conditions may differ. Non-standard residues stand in square brackets, D forms with d. dNMeW = CN[C@H](Cc1c[nH]c2ccccc12)C(=O)O; dNMeE = CN[C@H](CCC(=O)O)C(=O)O

Columns and labels:
[1] = system: plasma HDL; assay: in vivo plasma HDL remodeling after intraperitoneal injection (Western blotting for mouse apoA-I); conditions: male mice (n=3), i.p. 18-24 mg/kg; FIG. 9
Procedure: To ascertain if the cyclic D,L-α-peptides function in vivo as modulators of HDL, we administered 1 to mice (BALB/c, n=3) via intraperitoneal injection (i.p.) at a dose of 20 mg/kg. After various times, blood was drawn and the plasma was analyzed by Western blotting to determine the levels of the HDL subpopulations.
In vivo plasma remodeling: Cyclic peptide c[wLwReQeR], 1, was dissolved in 10% sucrose, and sterile filtered through a 0.22-μm syringe filter before injection. Mice were fasted beginning 12 h before dosing, and continued the fast until after the 8-h time point blood draw was completed. Groups of three mice received a 20 mg/kg dose of the cyclic peptide via intraperitoneal injection (0.3 mL). Blood was drawn (30-60 μL) from the retro-orbital sinus into a heparinized capillary tube before dosing (0 min) and at different intervals from 30 min to 8 h after dosing. Plasma was isolated immediately from the whole blood by centrifugation at 5000 rpm for 10 min at 4° C., after which 10 μL of plasma were mixed with 90 μL of 50% sucrose, vortexed for 30 s, and stored at 4° C. until all time points had been collected (samples were stored from 0-8 h). Samples were then mixed with 20 μL of 6× native loading buffer (125 mM tris, pH 6.8, 0.02% bromophenol, 20% glycerol). 6 μL of these samples were loaded onto a 4-20% polyacrylamide gel. Gels were run at constant 80 V at 4° C. for 14 h using a Laemli buffer system (25 mM tris, 192 mM glycine, pH 8.3). Gels were then blotted onto nitrocellulose membranes (0.45 μm, Bio-Rad) at constant 30 V at 4° C. for 2 h using the Laemli buffer (no methanol). The membrane was blocked with 5% non-fat dry milk (NFDM) in TBST (20 mM tris, 150 mM NaCl, pH 7.6, 0.1% Tween-20) for 1 h at 23° C., and then washed once for 10 min with TBST. […]
In vivo plasma HDL remodeling activities of some of the peptides were also analyzed. […] Results shown in the figure were determined by Western blotting for mouse apoA-I.

[2] = system: LDLr-null mice; assay: in vivo efficacy study: plasma total cholesterol in high-fat-fed LDLr-null mice; parameters: species or system mouse; conditions: oral 35 mg/kg in drinking water, two weeks, female LDLr-null mice, high-fat diet; FIG. 7
Excerpt: Encouraged by the above findings, we carried out a 2-week pilot study to determine the effect of 1 on plasma total cholesterol levels. As an animal model, we employed the LDLr-null mouse, which has a human-like lipoprotein profile and is a leading animal model for studying hypercholesterolemia and atherogenesis. Considering that the abiotic nature of cyclic D,L-α-peptides renders them highly resistant to proteolysis, we chose to conduct this pilot in vivo efficacy study via the more convenient oral route of administration. Thus, the cyclic D,L-α-peptide was administered orally in the drinking water for two weeks (each mouse drank ˜0.5 mg peptide per day, or ˜25 mg/kg/day) to mice maintained on a high-fat diet.
(§1) In vivo efficacy study: LDL receptor-null (LDLr^−/−) mice on a C57BL/6J background were initially purchased from Jackson Laboratories (Bar Harbor, Me.) and were bred in house. The mice were weaned at 4 weeks of age and were fed ad libitum a standard chow diet (Harlan Teklad 7019) until they were 10-weeks old, when they were switched to a high-fat Western diet (WD) containing 15.8% (wt/wt) fat, 1.25% (wt/wt) cholesterol, and no cholate (Harlan Teklad 94059). At the time that the WD was started, the test cyclic peptide was added to the drinking water at a high dose of 180 μM (200 μg/mL) or a low dose of 18 μM (20 μg/mL) and the mice (female, n=8 per dosing group) were continued on WD for 10 weeks. The lyophilized peptide was easily dissolved in PBS (pH 7.4) containing 1% sucrose, resulting in a clear solution. The drinking water solution was replaced with fresh solution every day. A control group of eight mice (female, n=8) were fed WD with vehicle (PBS with 1% sucrose) drinking water. The mice consumed approximately 2.5 mL of water per day per mouse, and there was no significant difference in water or food consumption between groups.
Effect of cyclic peptides on plasma total cholesterol: The mice were bled after two weeks of treatment and at the time of harvest (10 weeks). The blood (200 μL) was collected after an overnight fast (14-16 h) by retro-orbital puncture into a heparinized capillary tube at two weeks, or by cardiac puncture into EDTA anti-coagulant coated tubes at the time of harvest (10 weeks). Plasma was separated from whole blood immediately by centrifugation of the blood samples at 5000 rpm for 10 min at 4° C., and was then stored at −80° C. Plasma total cholesterol (TC) was measured using an enzymatic colorimetric method kit (Amplex® red cholesterol assay kit, No. A12216, Life Technologies) according to the manufacturer's instructions.
In addition, several peptides were administered orally to mice at a 35 mg/kg dose (unless otherwise noted) in the drinking water for two weeks. The female LDLr-null mice maintained on a high-fat diet were provided with peptide-treated 1% sucrose/PBS or 1% sucrose/PBS alone as the drinking water ad libitum. Cholesterol levels were then determined. The data are shown in FIG. 7 as a scatter plot along with mean±SD. p values were determined by the one-way ANOVA test with a post hoc Tukey-Kramer test.

[3] = system: HDL in human plasma; assay: pre-beta HDL ELISA assay: remodeling HDL in human plasma in vitro; assay type: biochemical
Procedure: First, various cyclic peptides, including the majority of compounds shown in FIG. 2, were assessed for activities for remodeling HDL in human plasma in vitro. Unlike western blot which was used to generate data shown in FIG. 2, here a pre-beta HDL ELISA assay was used to measure pre-beta HDL levels. Results from the assay are shown in Table 1, which lists the peptides in the order of their activities in remodeling HDL.

[4] = system: LDLr-null mice; assay: evaluation of atherosclerosis: whole aorta lesion area and aortic sinus lesion volume; assay type: in vivo, mouse; conditions: oral 35 mg/kg in drinking water, 10 weeks, female LDLr-null mice; FIG. 8; 35 mg/kg
Excerpt: as §1
Evaluation of atherosclerosis: Atherosclerotic lesion severity was assessed in the aortae as previously described in Mullick et al., J. Clin. Invest. 115, 3149-3156, 2005. Briefly, at euthanasia, animals were perfused with PBS, followed by 4% formaldehyde (10% UltraPure EM Grade from Polysciences diluted in PBS, pH 7.2). For en face analysis, the entire mouse aorta was dissected from the proximal ascending aorta to the bifurcation of the iliac artery by using a dissecting microscope. Adventitial fat was removed, and the aorta was opened longitudinally, pinned flat onto black dissecting wax, stained with Sudan IV, and photographed at a fixed magnification. The photographs were digitized, and total aortic areas and lesion areas were calculated by using Adobe Photoshop version CS4, Chromatica V, and NIH Scion Image software (http://rsb.info.nih.gov/nih-image/Default.html). The results were reported as a percentage of the total aortic area that contained lesions.
As a second assessment of atherosclerosis, lesions of the aortic root (heart sinus) were analyzed. Utilizing stereological principles, lesion volume was estimated across a fixed distance of the aortic sinus. […] Lesion areas found only within the valve cusp were measured. […] Lesion volume was calculated from an integration of the measured cross-sectional areas. […]
Other than their in vivo cholesterol reducing activities, several peptides were also examined for ability to inhibit development of atherosclerotic legions in vivo. […] All charts in the figure are shown as a scatter plot along with mean±SD. p values were determined by the one-way ANOVA test with a post hoc Tukey-Kramer test.

Row | Substance | in vivo plasma HDL remodeling, level of lipid-poor pre-beta particles [1] | plasma cholesterol levels (in words) [2] | activity in generating pre-beta HDL (in words) [3] | development of atherosclerotic lesions: whole aorta lesion areas and aortic sinus lesion volumes (in words) [4] | Pre-beta HDL generated (normalized level) ([3]; pre-beta HDL ELISA)
1 | 82 (cyclo(WIW[dW]K[dH]K[dH]); SMILES CC[C@H](C)[C@@H]1NC(=O)[C@H](Cc2c[nH]c3ccccc23)NC(=O)[C@@H](Cc2c[nH]cn2)NC(=O)[C@H](CCCCN)NC(=O)[C@@H](Cc2c[nH]cn2)NC(=O)[C@H](CCCCN)NC(=O)[C@@H](Cc2c[nH]c3ccccc23)NC(=O)[C@H](Cc2c[nH]c3ccccc23)NC1=O) [compound 82] | able to remodel plasma HDL to increase the level of lipid-poor pre-beta particles | – | – | – | –
2 | c[(Me)wLwR(Me)eQeR] (cyclo([dNMeW]L[dW]R[dNMeE]Q[dE]R)) [SEQ ID NO:46] | – | negatively affect | negatively affect | remains very effective as the parent compound; also recorded: similarly effective as the parent compound in preventing the development of atherosclerotic lesions | –
3 | 53 (cyclo([dW]L[dW]K[dH]S[dH]K); SMILES CC(C)C[C@@H]1NC(=O)[C@@H](Cc2c[nH]c3ccccc23)NC(=O)[C@H](CCCCN)NC(=O)[C@@H](Cc2c[nH]cn2)NC(=O)[C@H](CO)NC(=O)[C@@H](Cc2c[nH]cn2)NC(=O)[C@H](CCCCN)NC(=O)[C@@H](Cc2c[nH]c3ccccc23)NC1=O) [compound 53] | able to remodel plasma HDL to increase the level of lipid-poor pre-beta particles | – | – | – | 0.79
